Assay results taken from patent publication US20200383985A1, “Inhibitors of Protease Activated Receptor-2” (Endosome Therapeutics, Inc., priority 2017, published 2020).
Like-named read-outs stand apart in the source and are kept apart here.

Legend:
[1] = tested on: mouse DRG neurons; assay: Patch clamp rheobase of DRG neurons: protease-induced hyperexcitability of nociceptors; format: cell-based; details: for basal excitability of DRG neurons / initial hyperexcitability (0 min) caused by trypsin, NE or CS / persistent effects (30 min) of NE or CS on rheobase / persistent effects (30 min) of trypsin on rheobase: Dy4 30 μM, PS2 15 μM; for rheobase after protease: trypsin 50 nM 10 min, NE 390 nM 30 min, CS 500 nM 60 min, thrombin 50 nM 20 min, washed
[2] = tested on: colonic afferent neurons; assay: Colonic afferent recordings, healthy mice; set-up: species or system mouse; details: for basal mechanical sensitivity of colonic afferents / trypsin-induced sensitization of mechanical responses: I-343 10 μM, PS2 or PS2 inact 50 μM; for amplification of frequency of firing to mechanical stimulation: healthy mice, 2 g filament, trypsin 10 nM, NE 100 nM, CS 100 nM, 10 min
From the text: To examine whether proteases cleave PAR2 on the peripheral terminals of colonic nociceptors to induce mechanical hypersensitivity, single unit recordings from afferent neurons innervating the mouse colon were made. Receptive fields were identified by mechanical stimulation of the mucosal surface with von Frey filaments, proteases were applied to the mucosal receptive fields, and mechanical responses were re-evaluated to assess sensitization. Under basal conditions, repeated mechanical stimulation (2 g filament) induced reproducible firing (FIG. 9A). […] The results support the hypothesis that PAR2 endocytosis is required trypsin-induced sensitization of colonic afferent neurons. The colon and rectum (5-6 cm) was removed from C57BL/6 mice. Afferent recordings were made from splanchnic nerves as described (Hughes, P. A. et al., Gut 2009, 58(10): 1333-134; Brierley, S. M. et al., Gastroenterology 2004, 127(1): 166-178). Briefly, the intestine was opened and pinned flat, mucosal side up, in an organ bath. […] The splanchnic nerve was extended into a paraffin-filled recording compartment, in which finely dissected strands were laid onto a platinum electrode for single-unit extracellular recordings of action potentials generated by mechanical stimulation of receptive fields in the colon. Receptive fields were identified by mechanical stimulation of the mucosal surface with a brush of sufficient stiffness to activate all types of mechanosensitive afferents. […] These neurons express an array of channels and receptors involved in pain, become mechanically hypersensitive in models of chronic visceral pain, and have a nociceptor phenotype. They are therefore referred to as “colonic nociceptors”. […] Proteases were applied to a metal cylinder placed over the receptive mucosal field of interest. […] Action potentials were analyzed using the Spike 2 […] function and discriminated as single units on the basis of distinguishable waveform, amplitude and duration.

[3] = target: T1, mPAR2-GFP (Mus musculus, UniProt P55086); assay: PAR2 trafficking (endocytosis) in DRG neurons; format: cell-based; details: for mPAR2-GFP endocytosis: protease 100 nM, 30 min
T1 construct: expressed in transfected cells; host or cells: mouse (C57BL/6) DRG neurons, nucleofection
T1 sequence (P55086 26-399): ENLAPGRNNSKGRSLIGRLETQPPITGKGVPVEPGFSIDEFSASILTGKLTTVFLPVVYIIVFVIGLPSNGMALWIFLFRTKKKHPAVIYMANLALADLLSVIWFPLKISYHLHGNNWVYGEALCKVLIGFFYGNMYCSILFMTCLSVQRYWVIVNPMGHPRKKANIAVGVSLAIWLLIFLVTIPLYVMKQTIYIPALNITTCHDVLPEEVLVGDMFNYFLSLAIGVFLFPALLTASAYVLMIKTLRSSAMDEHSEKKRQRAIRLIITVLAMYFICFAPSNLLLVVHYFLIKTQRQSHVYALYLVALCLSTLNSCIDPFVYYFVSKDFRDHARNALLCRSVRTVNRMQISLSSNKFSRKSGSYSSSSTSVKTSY
Protocol: To assess endocytosis of PAR2 in nociceptors, mouse (m) PAR2-GFP was transfected in to mouse DRG neurons. In vehicle-treated neurons, mPAR2-GFP was detected at the plasma membrane and in intracellular compartments that may correspond to stores of PAR2 in the Golgi apparatus (FIG. 4A) (Jensen D. D., et al. J Biol Chem. 2016, 291(21): 11285-11299). Trypsin, but not NE or CS (100 nM, 30 min), induced mPAR2-GFP endocytosis (FIG. 4A, B). Dy4, but not Dy4 inact, inhibited trypsin-induced endocytosis of mPAR2-GFP (FIG. 4C). To determine whether PAR2 recruits βARRs, which mediate endocytosis, Bioluminescence Resonance Energy Transfer (BRET) sensors were expressed for PAR2-RLuc8 (donor) and βARR2-YFP (acceptor) in mouse DRG neurons. Trypsin, but not NE or CS, increased PAR2-RLuc8/βARR2-YFP BRET (FIG. 4D).
DRG were collected from C57BL/6 mice and Sprague-Dawley rats (all levels). DRG were incubated with collagenase IV (2 mg/ml) and dispase II (1 mg/ml) for 30 min (mice) and 45 min (rats) at 37° C. DRG were dispersed by trituration with a fire-polished Pasteur pipette. Dissociated neurons were transfected with mPAR2-GFP (1 μg), the FRET biosensors CytoEKAR, NucEKAR, pmCKAR or CytoCKAR (all […]), or with the BRET biosensors PAR2-RLuc8 (125 ng) and βARR2-FYP (475 ng) using the Lonza 4D-Nucleofector X unit according to the manufacturer's instructions. […]
Mouse DRG neurons expressing mPAR2-GFP were incubated with trypsin (10 nM), CS (100 nM), NE (100 nM) or vehicle (30 min, 37° C.), and were fixed (4% paraformaldehyde, 20 min, 4C). NeuN was detected by indirect immunofluorescence as described (Jensen, D. D. et al., Sci Transl Med. 2017, 9(392), eaal3447). […] PAR2 internalization in NeuN-positive neurons was quantified using ImageJ software. The border of the cytoplasm in the neuronal soma was defined by NeuN fluorescence. mPAR2-GFP fluorescence within 0.5 μm of the border was defined as plasma membrane-associated receptor. The ratio of plasma membrane to cytosolic mPAR2-GFP was determined.

[4] = target: T2, PAR2-RLuc8 (Homo sapiens, UniProt P55085); assay: BRET assays of PAR2 endocytosis in HEK293 cells; format: cell-based; details: for EC50: HEK293 cells
T2 construct: expressed in transfected cells; host or cells: HEK293, transient transfection with PEI
T2 sequence (P55085 26-397): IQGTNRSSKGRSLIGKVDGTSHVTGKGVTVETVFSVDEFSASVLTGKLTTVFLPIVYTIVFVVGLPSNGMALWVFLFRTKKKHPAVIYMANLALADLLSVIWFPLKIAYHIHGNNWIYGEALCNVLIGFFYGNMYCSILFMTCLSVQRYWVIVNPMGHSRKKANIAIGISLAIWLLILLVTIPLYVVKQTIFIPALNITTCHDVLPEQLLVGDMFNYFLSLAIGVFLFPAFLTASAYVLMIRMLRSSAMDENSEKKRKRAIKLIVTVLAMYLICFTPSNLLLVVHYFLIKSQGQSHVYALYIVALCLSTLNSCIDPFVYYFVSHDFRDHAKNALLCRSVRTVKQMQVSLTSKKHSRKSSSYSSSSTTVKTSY

| mPAR2-GFP endocytosis [3] | Molecule | basal mechanical sensitivity of colonic afferents [2] | trypsin-induced sensitization of mechanical responses [2] | basal excitability of DRG neurons [1] | initial hyperexcitability (0 min) caused by trypsin, NE or CS [1] | persistent effects (30 min) of NE or CS on rheobase [1] | persistent effects (30 min) of trypsin on rheobase [1] | rheobase after protease [1] | amplification of frequency of firing to mechanical stimulation [2] [%] | other results |
| --- | --- | --- | --- | --- | --- | --- | --- | --- | --- | --- |
| not | NE: protease (elastase) activating PAR2 by biased mechanisms | – | – | – | – | – | – | decreased rheobase at 0 and 30 min | 41.0±11.8 | PAR2-RLuc8/RIT-Venus or Rab5a-Venus BRET ([4]; 100 nM): Neither NE nor CS (100 nM) affected |
| induced | trypsin | – | – | – | – | – | – | decreased rheobase at 0 and 30 min | 35.8±5.9 | EC50 ([4]; read-out: EC50, decrease in PAR2-RLuc8/RIT-Venus BRET): 2.9 nM; EC50 ([4]; read-out: EC50, increase in PAR2-RLuc8/Rab5a-Venus BRET): 2.7 nM; PAR2-RLuc8/Rab5a-Venus BRET after 60 min ([4]; compared to HC supernatant, trypsin 10 nM positive control): increased |

The next lines start with the molecule.

| Molecule | mPAR2-GFP endocytosis [3] | basal mechanical sensitivity of colonic afferents [2] | trypsin-induced sensitization of mechanical responses [2] | basal excitability of DRG neurons [1] | initial hyperexcitability (0 min) caused by trypsin, NE or CS [1] | persistent effects (30 min) of NE or CS on rheobase [1] | persistent effects (30 min) of trypsin on rheobase [1] | rheobase after protease [1] | amplification of frequency of firing to mechanical stimulation [2] [%] | other results |
| --- | --- | --- | --- | --- | --- | --- | --- | --- | --- | --- |
| Cc1nc(C(=O)N2CCN(C(=O)c3cn4nc(-c5ccc(F)cc5)cc(C(C)(C)C)c4n3)C(C)(C)C2)n[nH]1 [Compound I-343, (8-(tert-butyl)-6-(4-fluorophenyl)imidazo[1,2-b]pyridazin-2-yl)(2,2-dimethyl-4-(5-methyl-1H-1,2,4-triazole-3-carbonyl)piperazin-1-yl)methanone] | – | did not affect | abolished | – | – | – | – | – | – | decrease in rheobase 0 min after NE [1]: prevented; decrease in rheobase 0 min after trypsin ([1]; 100 nM, 300 nM): prevented; decrease in rheobase 30 min after CS ([1]; 10 μM): prevented; decrease in rheobase 30 min after NE ([1]; 10 μM): not; decrease in rheobase 30 min after trypsin ([1]; 10 μM): prevented |
| O=C(N/N=C/c1cc(O)c(O)cc1O)c1cc2ccccc2cc1O [Dy4] | – | – | – | did not affect | did not affect | not | abolished | – | – | trypsin-induced endocytosis of mPAR2-GFP ([3]; preincubated with Dy4 or Dy4 inact): inhibited |
| O=C1NC(=NS(=O)(=O)c2cccc3ccccc23)S/C1=C\c1ccc(Br)cc1 [PS2] | – | did not affect | abolished | did not affect | did not affect | not | abolished | – | – | trypsin-induced decrease in PAR2-RLuc8/RIT-Venus BRET and increase in PAR2-RLuc8/Rab5a-Venus BRET ([4]; PS2 or PS2 inact): suppressed |
